Data from patent publication US20220323383A1, “SMALL-MOLECULAR ADJUVANTS AND IMPLEMENTATIONS THEREOF” (JAWAHARLAL NEHRU CENTRE FOR ADVANCED SCIENTIFIC RESEARCH, priority 2019, published 2022).

Columns and labels:
Format in all cases: cell-based
human RBCs = test: Haemolytic activity; conditions: concentration at which 50% of human blood cells are lysed; 1 h at 37° C.
Protocol: Erythrocytes were isolated from freshly drawn, heparanized human blood and re-suspended to 5 vol % in PBS (pH 7.4). In a 96-well microtiter plate, 150 μl of erythrocyte suspension was added to 50 μl of serially diluted compound. Two controls were made, one without compound and other with 50 μl of 1 vol % solution of Triton X-100. The plate was incubated for 1 h at 37° C. The plate was then centrifuged at 3,500 rpm for 5 min, 100 μl of the supernatant from each well was transferred to a fresh 96-well microtiter plate, and A540 was measured. Percentage of hemolysis was determined as (A−A0)/(Atotal−A0)×100, where A is the absorbance of the test well, A0 the absorbance of the negative controls (without compound), and Atotal the absorbance of 100% hemolysis wells (with Triton X-100), all at 540 nm.
Toxicity studies of the compounds were done on freshly drawn human RBCs. Toxicity of the compounds were defined by their HC50 values (Table 2), i.e. the concentration of compound at which 50% of the blood cells are lysed.

A. baumannii R674 [1] = test: Individual antibacterial activity (MIC) of adjuvants; conditions: adjuvant alone; A. baumannii R674
Protocol: (§1) The combination efficacy with antibiotics from different classes and individual antibacterial activity of the synthesized adjuvants was evaluated against the above mentioned MDR and NDM-1 strains of Gram-negative bacteria. All the bacteria were grown in peptone. The bacterial samples were freeze dried and stored at −80° C. 3 μl of these stocks were added to 3 mL of peptone and the culture was grown for 6 h at 37° C. prior to the experiments.
(§2) All synthesized compounds were assayed for their antibacterial activity in combination with antibiotics in a modified chequerboard micro-dilution broth format. Stock solutions were made by serially diluting the compounds using autoclaved millipore water. The bacterial freeze dried stock samples were stored at −80° C. About 3 μL of these stocks were added to about 3 mL of the respective broth and the culture was grown for about 6 h at about 37° C. with prior to the experiments. This 6 h grown culture gives about 10^8 cfu/mL in case of A. baumannii R674, P. aeruginosa R590, E. coli R3336 and K. pneumoniae R3934 which were determined by spread plating method. This 6 h grown culture was diluted to give effective cell concentration of 10^5 cfu/mL, and then used for the chequerboard assay. Adjuvants and antibiotics were serially diluted in two-fold, in sterile millipore water. 25 μL of these serial dilutions of the antibiotics and 25 μL of compounds were added to the wells of 96 well plate followed by the addition of about 150 μL of bacterial solution (˜10^5 cfu/mL). The plates were then incubated at about 37° C., 150 rpm in the incubator and O.D at 600 nm was recorded at 24 h using TECAN (Infinite series, M200 pro) Plate Reader. The wells with similar OD as the media control contained the required concentration of the antibiotic and adjuvant for antibacterial efficacy. The potentiation ability of the adjuvants was determined by calculating the potentiation factor and the Fractional Inhibitory concentration (FIC) index. Fractional Inhibitory Concentration (FIC) is expressed as, FIC=[X]/MICX, where [X] is the lowest inhibitory concentration of antibiotic in the presence of the adjuvant. Whereas FIC index is expressed as, FICI=FICantibiotic+FICadjuvant. The values of FIC index give an insight about the nature of the combination. Potentiation factor which means fold-reduction in the MIC of the antibiotic, when used in combination with the adjuvant was also determined. Potentiation factor=[Minimum inhibitory concentration (MIC) of antibiotic in absence of adjuvant]/[MIC of antibiotic in presence of adjuvant]. […] The combination efficacies of adjuvants with various antibiotics are furnished in Table 1. It should be noted that various other resistant strains of bacteria (Gram-positive and Gram-negative) can be tested with a number of other antibiotics to check the potentiation capacity of the adjuvants.

P. aeruginosa R590 [2] = test: as above; conditions: adjuvant alone; P. aeruginosa R590
Protocol: as §1, §2

A. baumannii R674 [3] = test: Chequerboard combination efficacy of adjuvant with antibiotics
Protocol: (§3) All the solvents were of reagent grade, which were distilled and dried before its use. All the reagents were purchased from Sigma-Aldrich, Alfa-Aesar, S.D. Fine, Avra and Spectrochem, and were used without further purification. Analytical thin layer chromatography (TLC) was performed on E. Merck TLC plates pre-coated with silica gel 60 F254 and visualization was carried out using UV light and Iodine. Column chromatography was performed on silica gel (60-120 mesh) using different ratio of chloroform and methanol solvent system. Nuclear magnetic resonance spectra were recorded on Bruker (AV-400) 400 MHz spectrometer in deuterated solvents. Mass spectra were obtained using 6538-UHD Accurate mass Q-TOF LC-MS instrument. For optical density measurement during bacteriology experiments, Tecan Infinite Pro series M200 Microplate Reader was used. Bacterial strains, A. baumannii (R674), P. aeruginosa (R590), E. coli (R3336) and K. pneumoniae (R3934) were used for the studies.
as §1, §2

P. aeruginosa R590 [4] = test: as above; conditions: P. aeruginosa R590
Protocol: as §3, §1, §2

SMILES	HC50 (human RBCs)	MIC against clinical isolates of bacteria (A. baumannii R674 [1])	MIC against clinical isolates of bacteria (P. aeruginosa R590 [2])	FICI (A. baumannii R674 [3]; antibiotic Rifampicin)	MIC of antibiotic in presence of adjuvant (A. baumannii R674 [3]; antibiotic Rifampicin)	Potentiation factor (A. baumannii R674 [3]; antibiotic Rifampicin)	FICI (A. baumannii R674 [3]; antibiotic Tetracycline)	MIC of antibiotic in presence of adjuvant (A. baumannii R674 [3]; antibiotic Tetracycline)	Potentiation factor (A. baumannii R674 [3]; antibiotic Tetracycline)	FICI (P. aeruginosa R590 [4]; antibiotic Rifampicin)	MIC of antibiotic in presence of adjuvant (P. aeruginosa R590 [4]; antibiotic Rifampicin)	Potentiation factor (P. aeruginosa R590 [4]; antibiotic Rifampicin)	FICI (P. aeruginosa R590 [4]; antibiotic Tetracycline)	MIC of antibiotic in presence of adjuvant (P. aeruginosa R590 [4]; antibiotic Tetracycline)	Potentiation factor (P. aeruginosa R590 [4]; antibiotic Tetracycline)
NCCCN(CCCN)C(=O)CC(c1ccccc1)c1ccccc1.O=C(O)C(F)(F)F.O=C(O)C(F)(F)F [Compound 4, N,N-bis((3-amino)propyl)3,3-diphenyl propanamide bis(trifluoroacetate)]	>1024 µg/mL	>512 mg/L	>512 mg/L	<0.26	1 mg/L	64	<0.5	32 mg/L	4	<0.28	4 mg/L	32	<0.5	64 mg/L	4
NCCCC[C@H](N)C(=O)NCCCN(CCCNC(=O)[C@@H](N)CCCCN)C(=O)Cc1cccc2ccccc12 [Compound 7, N,N-bis-[(6-(^LLys)amido)propyl] naphthyl ethanamide tetrakis(trifluoroacetate)]	>1024 µg/mL	>512 mg/L	>512 mg/L	<0.25	8 mg/L	8	<0.5	32 mg/L	4	<0.28	4 mg/L	32	<0.5	64 mg/L	4
NCCCC[C@H](N)C(=O)NCCCN(CCCNC(=O)[C@@H](N)CCCCN)CC(=O)NC1C2CC3CC(C2)CC1C3.O=C(O)C(F)(F)F.O=C(O)C(F)(F)F.O=C(O)C(F)(F)F.O=C(O)C(F)(F)F.O=C(O)C(F)(F)F (stereo partly drawn) [Compound 9]	>1024 µg/mL	>512 mg/L	>512 mg/L	<0.14	1 mg/L	64	<0.25	16 mg/L	8	<0.13	0.5 mg/L	256	<0.19	16 mg/L	16
